Measurements: patent US8445529B2, “Indole derivative having, carbamoyl group, ureido group and substituted oxy group” (Santen Pharmaceutical Co., Ltd., priority 2008, dated 2013)

Molecular target: T1, IKKβ (Homo sapiens, UniProt O14920)
T1 construct: purchased Upstate Biotechnology Inc. 14-485
T1 sequence (O14920 1-756): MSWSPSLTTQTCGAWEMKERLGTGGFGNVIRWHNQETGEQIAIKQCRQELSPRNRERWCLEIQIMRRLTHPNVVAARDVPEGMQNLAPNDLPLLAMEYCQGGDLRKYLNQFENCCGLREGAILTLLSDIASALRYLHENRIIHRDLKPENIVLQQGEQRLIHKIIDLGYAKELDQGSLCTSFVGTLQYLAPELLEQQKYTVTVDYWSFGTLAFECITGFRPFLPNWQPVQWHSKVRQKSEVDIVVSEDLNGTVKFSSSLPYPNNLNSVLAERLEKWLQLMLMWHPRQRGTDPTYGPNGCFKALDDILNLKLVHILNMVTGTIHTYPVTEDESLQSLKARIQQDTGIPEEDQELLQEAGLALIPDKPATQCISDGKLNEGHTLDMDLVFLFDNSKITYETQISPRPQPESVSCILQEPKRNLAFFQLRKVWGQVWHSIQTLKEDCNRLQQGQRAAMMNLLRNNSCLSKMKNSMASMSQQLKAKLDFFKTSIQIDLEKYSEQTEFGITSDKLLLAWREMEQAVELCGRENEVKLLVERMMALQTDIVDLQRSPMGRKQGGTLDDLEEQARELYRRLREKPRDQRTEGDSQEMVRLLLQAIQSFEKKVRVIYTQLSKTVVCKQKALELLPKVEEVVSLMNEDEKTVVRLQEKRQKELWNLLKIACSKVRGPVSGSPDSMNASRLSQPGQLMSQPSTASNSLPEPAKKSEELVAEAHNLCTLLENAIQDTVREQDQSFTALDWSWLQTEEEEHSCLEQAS
Assay: IKKβ inhibition assay by fluorescence polarization (IMAP kit)
Assay type: biochemical
Settings: test compound at 1 μM; inhibition rate exceeding 100% is indicated as 100%
Method: Details of the above will be described in detail in [Pharmacological Test] in Examples described below in this specification. IKKβ inhibition assay by fluorescence polarization was performed using IMAP™ IKKβ assay kit (manufactured by Molecular Devices Corporation, catalogue No. R8115) or IMAP™ FP Screening Express kit (manufactured by Molecular Devices Corporation, catalogue No. R8127).
In order to evaluate IKKβ inhibitory activity of the present compounds, an IKKβ inhibition assay by a fluorescence polarization method was conducted. The assay was conducted using IMAP™ IKKβ assay kit (manufactured by Molecular Devices Corporation, catalogue No. R8115) or IMAP™ FP Screening Express kit (manufactured by Molecular Devices Corporation, catalogue No. R8127) in accordance with the protocol attached to each kit. The specific methods are described below.
1) Complete Reaction Buffer: a complete reaction buffer was so prepared to obtain a final composition of 10 mM Tris-HCL (pH 7.2), 10 mM magnesium chloride, 0.1% bovine serum albumin, and 1 mM dithiothreitol.
2) Substrate Working Solution: 400 nM substrate working solution was prepared by dissolving and diluting a fluorescein-labeled IKKβ substrate peptide (amino acid sequence: GRHDSGLDSMK) with the complete reaction buffer.
3) Enzyme Working Solution: 0.2 units/mL enzyme working solution was prepared by diluting IKKβ solution (manufactured by Upstate Biotechnology Inc., catalogue No. 14-485) with the complete reaction buffer.
4) ATP Working Solution: 8 μM ATP working solution was prepared by dissolving ATP into ultrapure water followed by diluting it with the complete reaction buffer.
5) IMAP binding solution: After diluting an IMAP binding buffer with ultrapure water, an IMAP binding solution was prepared by diluting an IMAP binding reagent with the diluted IMAP binding buffer.
A test compound was dissolved in dimethyisulfoxide followed by diluting it with the complete reaction buffer to prepare 4 μM test compound solution.
1) To a 384-well plate, the test compound solution, the enzyme working solution, the substrate working solution, and the ATP working solution were added in an amount of 5 μL per well.
2) Incubation was performed at room temperature for 60 minutes under light shielding.
3) The IMAP binding solution was added in an amount of 60 μL per well.
4) Incubation was performed at room temperature for 30 minutes under light shielding.
5) Fluorescence polarization value of each well was measured by using Analyst™ HT (multimode plate reader manufactured by Molecular Devices Corporation) and Criterion Host Software v2.00 (manufactured by Molecular Devices Corporation).
6) Operations were performed in the same manner as in 1) to 5) except for changing the test compound to 0.4% dimethylsulfoxide. The obtained result was designated as a control.
7) Operations were performed in the same manner as in 1) to 5) except for changing the test compound and the enzyme working solution to 0.4% dimethylsulfoxide and the complete reaction buffer, respectively. The obtained result was designated as a background.
An IKKβ inhibition rate (%) was calculated by the following equation.
IKKβ inhibition rate (%)=100×{1-(fluorescence polarization value of test compound−fluorescence polarization value of background)/(fluorescence polarization value of control−fluorescence polarization value of background)}

inhibition at 1 µM	SMILES
78%	COc1cccc2c(C(N)=O)c(NC(N)=O)[nH]c12 [Compound No. 1-3, 2-Aminocarbonylamino-7-methoxyindole-3-carboxamide]
89%	NC(=O)Nc1[nH]c2cc(Oc3ccnc(Cl)c3)ccc2c1C(N)=O [Compound No. 4-3, 2-Aminocarbonylamino-6-(2-chloropyridine-4-yloxy)indole-3-carboxamide]
91%	NC(=O)Nc1[nH]c2cc(OCC3CC3)ccc2c1C(N)=O [Compound No. 3-2, 2-Aminocarbonylamino-6-cyclopropylmethyloxyindole-3-carboxamide]
95%	COc1ccc2c(C(N)=O)c(NC(N)=O)[nH]c2c1 [Compound No. 1-1, 2-Aminocarbonylamino-6-methoxyindole-3-carboxamide]
92%	NC(=O)Nc1[nH]c2cc(Oc3ccc(Cl)cc3)ccc2c1C(N)=O [Compound No. 9-1, 2-Aminocarbonylamino-6-(4-chlorophenyloxy)indole-3-carboxamide]
90%	NC(=O)Nc1[nH]c2cc(O)ccc2c1C(N)=O [Compound No. 2-1, 2-Aminocarbonylamino-6-hydroxyindole-3-carboxamide]

Second part, the compound before the results:

SMILES	inhibition at 1 µM
CC(=O)Nc1ccc(Oc2ccc3c(C(N)=O)c(NC(N)=O)[nH]c3c2)cc1 [Compound No. 6-1, 6-(4-Acetylaminophenyloxy)-2-(aminocarbonylamino)indole-3-carboxamide]	98%
NC(=O)Nc1[nH]c2cc(Oc3ccc([N+](=O)[O-])cc3)ccc2c1C(N)=O [Compound No. 4-1, 2-Aminocarbonylamino-6-(4-nitrophenyloxy)indole-3-carboxamide]	100%
COc1ccc(F)c2c(C(N)=O)c(NC(N)=O)[nH]c12 [Compound No. 1-4, 2-Aminocarbonylamino-4-fluoro-7-methoxyindole-3-carboxamide]	60%
C=Cc1cc(F)c2c(C(N)=O)c(NC(N)=O)[nH]c2c1OC [Compound No. 8-2, 2-Aminocarbonylamino-4-fluoro-7-methoxy-6-vinylindole-3-carboxamide]	91%
COc1c(-c2ccoc2)cc(F)c2c(C(N)=O)c(NC(N)=O)[nH]c12 [Compound No. 8-3, 2-Aminocarbonylamino-4-fluoro-6-(furan-3-yl)-7-methoxyindole-3-carboxamide]	87%
Cc1cc([N+](=O)[O-])ccc1Oc1ccc2c(C(N)=O)c(NC(N)=O)[nH]c2c1 [Compound No. 4-6, 2-Aminocarbonylamino-6-(2-methyl-4-nitrophenyloxy)indole-3-carboxamide]	97%
